Test results taken from ChEMBL document CHEMBL5352424, “Boosting caffeic acid performance as antioxidant and monoamine oxidase B/catechol-O-methyltransferase inhibitor” (Eur J Med Chem, 2022).
Active and inactive are the calls of the source. The rule behind the calls is not given here.

Tests used:
SK-N-SH = test: Cytotoxicity against human SK-N-SH cells assessed as reduction in calcein fluorescence at 30 to 50 uM by calcein-AM assay; format: toxicity, cell-based; conditions: dose 30-50 µM
SH-SY5Y [1] = test: Cytotoxicity against retinoic acid and TPA-differentiated human SH-SY5Y cells upto 50 uM incubated for 24 hrs by neutral red dye based assay; format: toxicity, cell-based
SH-SY5Y [2] = test: Cytotoxicity against retinoic acid and TPA-differentiated human SH-SY5Y cells upto 50 uM incubated for 24 hrs by resazurin dye based assay; format: toxicity, cell-based
Rattus norvegicus = species on record: Rattus norvegicus; test: Selectivity index, ratio of IC50 for S-COMT in rat liver homogenates to IC50 for MB-COMT in rat brain homogenates; format: tissue-based
SH-SY5Y [3] = test: Cytotoxicity against retinoic acid and TPA-differentiated human SH-SY5Y cells assessed as reduction in lysosomal activity by measuring neutral red dye uptake at 10 uM incubated for 24 hrs by neutral red dye based assay relative to control; format: toxicity, cell-based; design: scale not given: the % may be the effect or the level left
[4] = biological target: T1, Catechol O-methyltransferase (Rattus norvegicus, UniProt P22734); test: Inhibition of MB-COMT in rat brain homogenates using adrenaline as substrate and SAM as cofactor preincubated for 20 mins followed by substrate addition and measured after 5 mins; format: tissue-based
T1 sequence (P22734 whole entry): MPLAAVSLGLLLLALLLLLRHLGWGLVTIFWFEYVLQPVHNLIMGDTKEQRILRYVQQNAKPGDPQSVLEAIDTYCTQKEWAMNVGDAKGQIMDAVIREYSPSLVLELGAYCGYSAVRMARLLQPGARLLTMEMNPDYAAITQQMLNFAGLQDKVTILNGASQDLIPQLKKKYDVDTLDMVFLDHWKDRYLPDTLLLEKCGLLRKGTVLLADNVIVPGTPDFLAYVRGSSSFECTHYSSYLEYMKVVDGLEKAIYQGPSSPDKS

[5] = biological target: T1, Catechol O-methyltransferase; test: Inhibition of MB-COMT in rat liver homogenates using adrenaline as substrate and SAM as cofactor preincubated for 20 mins followed by substrate addition and measured after 5 mins; format: tissue-based
SH-SY5Y [6] = test: Cytotoxicity against retinoic acid and TPA-differentiated human SH-SY5Y cells assessed as reduction in lysosomal activity at 50 uM incubated for 24 hrs by neutral red dye based assay; format: toxicity, cell-based
[7] = biological target: T2, Amine oxidase [flavin-containing] B (Homo sapiens, UniProt P27338); test: Inhibition of human MAO-B using kynuramine as substrate incubated for 30 mins by spectrophotometry analysis
T2 sequence (P27338 whole entry): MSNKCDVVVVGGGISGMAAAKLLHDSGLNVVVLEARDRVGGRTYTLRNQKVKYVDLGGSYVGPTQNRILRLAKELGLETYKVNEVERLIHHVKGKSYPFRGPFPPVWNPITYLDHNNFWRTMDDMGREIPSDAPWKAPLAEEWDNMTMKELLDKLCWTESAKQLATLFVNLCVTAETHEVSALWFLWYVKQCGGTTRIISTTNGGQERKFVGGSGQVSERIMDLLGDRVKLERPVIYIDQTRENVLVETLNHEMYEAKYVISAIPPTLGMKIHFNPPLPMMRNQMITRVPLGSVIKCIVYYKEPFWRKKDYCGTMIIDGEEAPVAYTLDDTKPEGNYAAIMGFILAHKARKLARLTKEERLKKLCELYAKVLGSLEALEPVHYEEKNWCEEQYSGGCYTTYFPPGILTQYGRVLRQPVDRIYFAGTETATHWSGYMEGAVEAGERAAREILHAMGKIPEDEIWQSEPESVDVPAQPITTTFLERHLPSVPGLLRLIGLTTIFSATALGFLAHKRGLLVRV

[8] = Oxidation potential of compound at pH 7.3 by differential pulse voltammetry analysis; format: physicochemical
SH-SY5Y [9] = test: Cytoprotective activity against t-BHP induced oxidative stress in retinoic acid and TPA-differentiated human SH-SY5Y cells assessed as increase in resorufin fluorescence at 10 uM pretreated for 30 mins followed by t-BHP stimulation and measured after 24 hrs by resazurin dye based analysis; format: functional, cell-based; conditions: time 24.5 hrs
Homo sapiens = species on record: Homo sapiens; test: Selectivity index, ratio of IC50 for human MAO-A to IC50 for human MAO-B
[10] = biological target: T3, Catechol O-methyltransferase (Rattus norvegicus) (UniProt P22734); test: Inhibition of S-COMT in rat liver homogenates using adrenaline as substrate and SAM as cofactor at 30 uM preincubated for 20 mins followed by substrate addition and measured after 5 mins relative to control; format: tissue-based; conditions: time 25.0 min
T3 sequence (whole entry): T1 sequence (P22734 whole entry)

[11] = biological target: T4, Amine oxidase [flavin-containing] A (Homo sapiens, UniProt P21397); test: Inhibition of human MAO-A using kynuramine as substrate at 10 uM incubated for 30 mins by spectrophotometry analysis relative to control; conditions: 0.5 h
T4 sequence (P21397 whole entry): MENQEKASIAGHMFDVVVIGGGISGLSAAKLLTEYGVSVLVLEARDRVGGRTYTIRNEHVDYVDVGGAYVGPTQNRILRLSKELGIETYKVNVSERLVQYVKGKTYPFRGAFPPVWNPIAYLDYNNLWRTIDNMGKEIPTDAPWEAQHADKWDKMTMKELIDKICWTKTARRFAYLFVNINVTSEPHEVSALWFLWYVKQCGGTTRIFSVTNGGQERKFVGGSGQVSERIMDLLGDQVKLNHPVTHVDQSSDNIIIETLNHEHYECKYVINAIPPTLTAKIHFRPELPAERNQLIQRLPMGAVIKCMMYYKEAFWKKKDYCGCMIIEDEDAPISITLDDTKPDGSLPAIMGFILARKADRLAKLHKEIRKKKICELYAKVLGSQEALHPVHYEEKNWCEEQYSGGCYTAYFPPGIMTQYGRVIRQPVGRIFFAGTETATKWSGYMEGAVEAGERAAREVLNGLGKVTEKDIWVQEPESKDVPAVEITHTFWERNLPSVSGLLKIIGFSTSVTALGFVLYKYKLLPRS

SH-SY5Y [12] = test: Cytotoxicity against retinoic acid and TPA-differentiated human SH-SY5Y cells assessed as reduction in metabolic activity by measuring resazurin reduction at 10 uM incubated for 24 hrs by resazurin dye based assay relative to control; format: toxicity, cell-based; design: scale not given: the % may be the effect or the level left
[13] = Antioxidant activity assessed as ORAC-FL index; format: functional
SH-SY5Y [14] = test: Cytotoxicity against retinoic acid and TPA-differentiated human SH-SY5Y cells assessed as reduction in lysosomal activity by measuring neutral red dye internalization at 10 to 50 uM incubated for 24 hrs by neutral red dye based assay; format: toxicity, cell-based; conditions: dose 10-50 µM
[15] = biological target: T2, Amine oxidase [flavin-containing] B; test: Inhibition of human MAO-B using kynuramine as substrate at 10 uM incubated for 30 mins by spectrophotometry analysis relative to control; conditions: 0.5 h
SH-SY5Y [16] = test: Cytotoxicity against retinoic acid and TPA-differentiated human SH-SY5Y cells assessed as reduction in metabolic activity by measuring reduction in resorufin fluorescence at 10 to 50 uM incubated for 24 hrs by resazurin dye based assay; format: toxicity, cell-based; conditions: dose 10-50 µM
[17] = biological target: T3, Catechol O-methyltransferase (Rattus norvegicus); test: Inhibition of MB-COMT in rat brain homogenates using adrenaline as substrate and SAM as cofactor at 30 uM preincubated for 20 mins followed by substrate addition and measured after 5 mins relative to control; format: tissue-based; conditions: time 25.0 min
[18] = biological target: T3, Catechol O-methyltransferase (Rattus norvegicus); test: Inhibition of MB-COMT in rat liver homogenates using adrenaline as substrate and SAM as cofactor at 30 uM preincubated for 20 mins followed by substrate addition and measured after 5 mins relative to control; format: tissue-based; conditions: time 25.0 min
[19] = Retention time of compound at pH 2.6 by LC/UV analysis; format: physicochemical; conditions: buffer
[20] = Chromatographic hydrophobicity index of compound at pH 2.6 by HPLC analysis; format: physicochemical

SMILES	Ratio IC50 (Rattus norvegicus)	Activity (SH-SY5Y [3]) [%]	IC50 [4] [nM]	IC50 [5] [µM]	Activity (SH-SY5Y [6])	IC50 [7] [µM]	Ep [8] [mV]	Activity (SH-SY5Y [9])	Ratio IC50 (Homo sapiens)	inhibition [10] [%]	inhibition at 10 µM [11] [%]	Activity (SH-SY5Y [12]) [%]	Activity index [13]	further results
Cc1ccc(C(=O)c2cc(O)c(O)c([N+](=O)[O-])c2)cc1 [TOLCAPONE]	–	–	–	–	–	–	–	–	–	–	–	–	–	Activity (SK-N-SH): Non-Toxic; Activity (SH-SY5Y [1]): Non-Toxic; Activity (SH-SY5Y [2]): Non-Toxic
N#C/C(=C\C=C\c1ccc(O)c(O)c1)C(=O)Nc1ccccc1	> 12	> 85	2410	3.74	Toxic	4.55	161	Active	> 2.2	< 50	< 50	> 85	3.5	–
O=C(O)/C=C/c1ccc(O)c(O)c1 [CAFFEIC ACID]	–	–	–	–	–	–	168	–	–	–	< 50	–	4.8	Activity (SH-SY5Y [14]): Non-Toxic; inhibition at 10 µM [15]: < 50%; Activity (SH-SY5Y [16]): Non-Toxic
N#C/C(=C\C=C\c1ccc(O)c(O)c1)C(=O)NCc1ccccc1 [LS-104]	–	> 85	–	–	Toxic	1.15	174	Active	> 8.7	< 50	< 50	> 85	2.8	inhibition [17]: < 50%; inhibition [18]: < 50%
C[C@H](NCc1ccc(OCc2cccc(F)c2)cc1)C(N)=O [SAFINAMIDE]	–	–	–	–	–	–	–	–	–	–	< 50	–	–	–
N#C/C(=C\C=C\c1ccc(O)c(O)c1)C(=O)N1CCCCC1	> 23	–	1330	2.69	–	4.27	154	Active	> 2.3	< 50	< 50	> 85	3.5	Activity (SH-SY5Y [14]): Non-Toxic; Retention_time [19]: 10.5 min; Activity (SK-N-SH): Non-Toxic; CHI [20]: 56.03
N#C/C(=C\C=C\c1ccc(O)c(O)c1)C(=O)NCCc1ccccc1	> 24	> 85	1270	4	Toxic	4.38	163	Active	> 2.3	< 50	< 50	–	3	Activity (SH-SY5Y [16]): Non-Toxic
